Holding throughout (assay): inhibition of tumour cell growth, NCI panel, 48 h
Assay [1] relates to MALME-3M melanoma.
Assay [2] has as its system K-562 leukemia.
For assay [3], the system named is SK-MEL-5 melanoma.
The test system of assay [4] is NCI-H226 lung.
In assay [5] the test system is SF-539 CNS.
The test system of assay [6] is NCI-H460 lung.
Assay [7] relates to EKVX NSCLC.
For assay [8], the system named is SK-MEL-2 melanoma.
The subject of assay [9] is OVCAR-3 ovarian.
For assay [10], the system named is HOP-92 NSCLC.

Each structure is given as a SMILES string. Several values for one entry are separate records, joined by “and”; a condition that tells them apart may be missing. Equal entries are not always repeated.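 Protocol summary: plate cells (96-well), add compound at 5 concentrations, incubate 48 h, interpolate endpoints linearly. GI50 = concentration required for 50% inhibition of growth. At the TGI there is no net growth.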

On to `O=C(/C(=C\C(=O)c1cccs1)c1ccsc1)c1ccc(Br)cc1`, for which the TGI in [1], in assay [2], in [3], in assay [4], in assay [5] and in [6] was over 100 µM throughout. In addition, the TGI in assay [7] and in assay [8] was over 100 µM in each case.
`COc1ccc(N2Cc3cnc(Nc4ccccc4)nc3N([C@@H]3CC[C@@H](O)C3)C2=O)cc1`: the GI50 is 10.9 µM in assay [9]; 6.89 µM in assay [1]; 5.67 µM in [2]; 9.25 µM in [3]; 0.523 µM in assay [4]; 0.652 µM in [5]. For the same molecule, the GI50 in assay [6] was 3.41 µM; in assay [8] it was 5.21 µM; in [10], 1.16 µM. Also, the TGI in assay [9] is over 25 µM; in assay [1], over 25 µM; in [2], over 25 µM; in [3], over 25 µM; in [4], over 25 µM; in assay [5], 5.41 µM. Moreover, the TGI in assay [6] is over 25 µM; in assay [8], 17.5 µM; in assay [10], 10.7 µM.
In the case of `O=C1c2ccc([N+](=O)[O-])cc2-c2c1c1ccccc1c(=O)n2CCCNCCCNCCCn1c2c(c3ccc([N+](=O)[O-])cc3c1=O)C(=O)c1ccccc1-2`, the GI50 in assay [9] was 2.2 µM; in assay [1], 5.51 µM; in [2] it was 0.539 µM; in [3], 3.07 µM; in assay [4] it was 1.57 µM; in [5], 1.96 µM. The values for the GI50 in [6], in assay [7] and in assay [8] were 2.34 µM, 8.76 µM and 17.3 µM, respectively. Also, the TGI in [9] turned out to be 6.16 µM; in assay [1], 41.7 µM; in [2], 1.97 µM; in assay [3] it was 20.9 µM; in assay [4], 8.53 µM; in [5], 7 µM. For the same molecule, the values for the TGI in assay [6], in assay [7] and in assay [8] were 14.6 µM, 32.1 µM and 62.3 µM, respectively.
For the molecule `O=[N+]([O-])c1ccc(S(=O)Cc2ccccc2)c([N+](=O)[O-])c1` (centres undefined), the GI50 was 1.84 µM in assay [9]; 1.62 µM in assay [1]; 2.56 µM in assay [2]; 9.08 µM in assay [3]; 2.27 µM in assay [4]; 3.64 µM in assay [5]. For the same molecule, the values for the GI50 in [6], in assay [7] and in [8] were 16.4 µM, 12.8 µM and 8.54 µM, respectively. Moreover, the TGI in assay [9] came out at 3.24 µM; in assay [1], 3.26 µM; in assay [2] it was 6.65 µM; in assay [3] it was 21.1 µM; in assay [4], 5.3 µM; in assay [5] it was 13.8 µM. Moreover, the TGI in assay [6] is 33.2 µM; in [7] it was 26.6 µM; in assay [8] it was 22.3 µM.
Consider `Cn1nc(-c2ccccc2)c(C(=O)/C=C/c2ccc(F)cc2)c(N2CCCCC2)c1=O`, for which the TGI in assay [2] turned out to be 13 µM; in assay [3], 19.7 µM; in assay [5], 16.4 µM; in [6], 18.1 µM; in assay [7] it was 72.3 µM; in assay [10], 20 µM.
For the molecule `CC12N=NN(c3ccc([N+](=O)[O-])cc3)C1(O)c1ccccc1C2=O` (centres undefined), the TGI in assay [9], in assay [1], in [3], in assay [4], in [5] and in assay [6] was over 100 µM throughout. Further, in [7], the TGI is over 100 µM.
Consider `CN(C)c1ccc([O-])cc1.CN(C)c1ccc([O-])cc1.CN(C)c1ccc([O-])cc1.CN(C)c1ccc([O-])cc1.[Ti+4]`, for which the GI50 is over 100 µM in [9]; over 100 µM in [1]; 37.9 µM in [2]; 51.5 µM in assay [3]; over 100 µM in [4]; over 100 µM in assay [5]. Besides, the GI50 in assay [6] was 37.4 µM; in assay [7] it was over 100 µM; in [8], over 100 µM. For the same molecule, the TGI in assay [9], in assay [1], in assay [2], in assay [3], in assay [4] and in [5] was over 100 µM each time. In addition, the TGI in assay [6], in assay [7] and in assay [8] was over 100 µM throughout.
`COc1ccccc1N=C(N)N/N=C/c1c[nH]c2ccccc12`: the TGI in assay [9] stood at 25.7 µM; in [1] it was 8.19 µM; in [2], 11.6 µM; in [3] it was 8.91 µM; in assay [4], 28.5 µM; in [5], 26.4 µM. For the same molecule, the results for the TGI in [6], in [7] and in [8] were 22.8 µM, 23.2 µM and 19.2 µM, respectively.
`O=C1C=CC=CC2CC=C[C@@H](O)C12` (some centres undefined): the TGI in assay [1] was 46.8 µM; in [2], over 100 µM; in assay [3], 38 µM; in assay [5], 63.9 µM; in assay [6], 38 µM; in [7] it was 63.5 µM. Besides, in assay [8], the TGI came to 58.5 µM.
Take `COc1cc(/C=C\c2ccc(C)cc2)cc(OC)c1OC`: the TGI in [9] is 0.00442 µM; in [2] it was 11.7 µM; in assay [4], 0.987 µM; in assay [5], 0.0218 µM; in assay [6] it was 0.232 µM; in [7] it was over 100 µM. Further, the TGI is 36.5 µM in assay [8] and 4.13 µM in assay [10]. Besides, the GI50 was under 0.0134 µM in assay [4], under 0.022 µM in assay [7], 0.0044 µM in assay [8] and 0.0233 µM in assay [10].
Regarding `Nc1nc2c(c(=O)[nH]1)NC(CO)CN2` (centres undefined), the TGI in assay [9], in [1], in [2], in assay [4], in assay [5] and in [6] was over 100 µM each time. Further, the TGI in assay [7] is over 100 µM.
As for `CC1(C)C(=O)C(C)(C)C1=NN`, the TGI in [9], in assay [1], in assay [2], in [3], in assay [4] and in [5] was over 100 µM in each case. Besides, the TGI in [6] and in [10] was over 100 µM throughout.
For `Clc1ccc(Cc2nc3ccccc3s2)c(Cl)c1`, the TGI in assay [9] turned out to be 33 µM; in [1] it was 30.9 µM; in assay [2], 36.2 µM; in assay [3] it was 32.6 µM; in [4] it was 39.1 µM; in assay [5] it was 12 µM. Besides, the TGI in assay [6] amounted to 41.4 µM; in assay [7], 42.1 µM; in assay [8] it was 32.7 µM.
Consider `COc1ccc(C2SCC(=O)N2NC(=O)C(O)c2ccccc2)cc1OC` (centres undefined), for which the GI50 in assay [9], in [2], in [3], in assay [4], in assay [5] and in [6] was over 100 µM in each case. Also, the GI50 in [7], in [8] and in assay [10] was over 100 µM throughout. Further, the TGI in assay [9], in assay [2], in [3], in assay [4], in assay [5] and in [6] was over 100 µM throughout. In addition, the TGI in assay [7], in assay [8] and in assay [10] was over 100 µM throughout.
`O=C(O)COc1ccc(O)c2c1C(=O)CCCC2=O`: the TGI in [9], in [1], in assay [2], in assay [3], in assay [5] and in [6] was over 100 µM in each case. Also, the TGI in assay [7] and in [8] was over 100 µM throughout.
Turning to `O=C(/C=C/C12c3ccccc3C(c3ccccc31)C1C(=O)N(c3ccccc3)C(=O)C12)c1ccccc1` (centres undefined), the GI50 in assay [9] is 2.22 µM; in assay [2], 1.39 µM; in assay [3], 2.29 µM; in assay [4] it was 2.34 µM; in assay [5], 2.09 µM; in [6] it was 1.92 µM. Further, the GI50 in [7] was 2.09 µM; in assay [8], 2.13 µM; in assay [10] it was 1.26 µM. The TGI was 7.09 µM in assay [9]; over 100 µM in assay [2]; 6.21 µM in [3]; 8.63 µM in assay [4]; 5.14 µM in [5]; 4.69 µM in [6]. Also, the TGI is over 100 µM in [7], 7.85 µM in assay [8] and 3.75 µM in [10].
In the case of `COc1cc(/C=C2\CCC/C(=C\c3cc(OC)c(O)c(OC)c3)C2=O)cc(OC)c1O`, the GI50 in [9] is 3.47 µM; in [2], 2.26 µM; in assay [3], 2.83 µM; in [4] it was 3.91 µM; in assay [7], 5.14 µM; in [8], 1.63 µM. Moreover, the TGI was 4.38 µM and 3.3 µM in [1]; 75 µM and > 100 µM in [2]; 75 µM and 19.6 µM in assay [3]; 47.9 µM and > 100 µM in assay [4]; over 100 µM in assay [5]; 10.7 µM in assay [6]. Moreover, the TGI in assay [7] was 75 µM and > 100 µM; in assay [8] it was 11.8 µM and 4.19 µM.
Turning to `C/C(=N\O)c1cccc(Nc2cc(-n3ccnn3)c3ccccc3n2)c1`, the GI50 was 20.2 µM in assay [9]; 14.9 µM in assay [2]; 13.4 µM in assay [3]; 0.388 µM in assay [4]; 19 µM in [5]; 48.9 µM in [6]. Moreover, the GI50 in assay [7] is 19 µM; in [8], 15.3 µM; in assay [10], 13.9 µM. Also, the TGI in [9] is 55.8 µM; in assay [2], 36.5 µM; in assay [3] it was 26.2 µM; in assay [4], 9.35 µM; in assay [5], 44 µM; in [6] it was over 100 µM. For the same molecule, the figures for the TGI in [7], in [8] and in [10] were 76.1 µM, 29.5 µM and 38.2 µM, respectively.
Take `CC1CCP(=O)(c2ccccc2)c2ccccc21` (centres undefined): the TGI is over 100 µM in assay [9]; over 100 µM in [1]; 62.9 µM in assay [2]; over 100 µM in assay [3]; over 100 µM in assay [4]; over 100 µM in assay [5]. Besides, the figures for the TGI in assay [6], in [7] and in assay [8] were 80.3 µM, over 100 µM and over 100 µM, respectively.
Turning to `O=C(c1ccccc1)C1CCCCN1C(=O)c1ccccc1` (centres undefined), the TGI in assay [9], in assay [1], in [2], in assay [3], in assay [4] and in assay [5] was over 100 µM throughout. The TGI in [6] and in assay [8] was over 100 µM each time.
In the case of `CCCCS(=O)CCC(N)C(=O)O` (centres undefined), the TGI in assay [9], in assay [1], in assay [2], in [3], in [4] and in assay [5] was over 100 µM each time. Moreover, the TGI in [6] and in assay [7] was over 100 µM throughout.
`OCCCOC(c1ccccc1)(c1ccccc1)c1ccccc1`: the TGI in assay [9], in assay [1], in assay [2], in assay [3], in [5] and in assay [6] was over 100 µM in each case. In assay [10], this molecule yielded a TGI of over 100 µM.
As to `O=C(Nc1cccs1)c1c(O)[nH]c(=S)[nH]c1=O`, the TGI in assay [9], in assay [2], in assay [3], in assay [4], in assay [5] and in assay [6] was over 100 µM throughout. Besides, the TGI in [8] and in assay [10] was over 100 µM each time.
As for `CCCn1c(SC)nc(COC(=O)NC)c1COC(=O)NC`, the TGI in assay [9], in assay [2], in [3], in [4], in [5] and in assay [6] was over 100 µM in each case. In addition, the TGI in assay [7] and in assay [8] was over 100 µM in each case.

For the origin of these results see PubChem BioAssay (NCI).
